Data as given in publication PMC8501045, “Addressing MRSA infection and antibacterial resistance with peptoid polymers” (Nature Communications, 2021).

Columns and labels:
[1] = test system: S. aureus USA300 biofilm formation; assay: Inhibition study on biofilm formation; format: cell-based, Staphylococcus aureus
Experimental: The plate was incubated at 37 °C for 24 h, and then the culture medium was removed, washed with PBS once, followed by adding 100 µL MTT solution (0.5 mg/mL) into the corresponding well. After further incubation at 37 °C for 4 h in the dark, the MTT solution was removed. An aliquot of 100 μL DMSO was added to each well to solubilize the purple solid and then the OD value was collected at 570 nm on a microplate reader. Wells containing inoculum and without antibacterial agents were used as the positive control; wells containing only MH medium were used as the blank. The percentage of surviving cells within biofilm was calculated from4 %cellviability=A570polymer-A570blank/A570control-A570blank×100
The test was independently repeated at least three times.

[2] = test system: S. aureus USA300 LAC; assay: Mouse full-thickness wound infection model, MRSA; format: in vivo; conditions: 1.56 mg/mL topical
Experimental: This infection model was conducted according to the previously reported method with slight modification. Female balb/c mice (20–21 g) were used in the full-thickness wound model caused by MRSA. Prior to surgery, mice were anesthetized with an intraperitoneal injection of sodium pentobarbital at a dose of 75 mg/kg. The dorsal hair was shaved, and the skin was rinsed with 75% alcohol three times. The 6-mm-diameter full-thickness wounds were punctured on either side of the back using a biopsy punch. An aliquot of 10 µL S. aureus USA300 LAC suspension (1.25 × 10^5 CFU/mL) was added to wound site. The wound site was covered by Tegaderm dressing (3 M, St Paul, MN) to prevent contamination. […] The treatments were applied every 4 h for a total of three times. After the last treatment for 4 h, mice were euthanized with an overdose of sodium pentobarbital. The wound sites were excised, weighed, and homogenized in PBS containing 0.1% TX-100. Then the homogenate was serially diluted for plating on LB agar. After incubation at 37 °C for 14 h, the number of colonies on the plate was counted to calculate the bacteria burden of wounds.

[3] = test system: S. epidermidis 9397; assay: Mouse peritonitis model, survival test, S. epidermidis; format: in vivo; conditions: i.p. 20 mg/kg, 7 days
Experimental: This infection model was conducted according to the previously reported method with slight modification. Female ICR mice (21–24 g) were used for MRSA-infected peritonitis model. Mice were infected by intraperitoneal administration of 0.2 mL of S. aureus USA300 LAC in saline (7.5 × 10^8 CFU/mL) supplemented with 5% mucin. […] Once the infected mice died, peritoneal lavage was performed by injecting 3.0 mL of saline into the peritoneal cavity and massaging the abdomen. Subsequently, the abdomen was opened and peritoneal fluid was recovered from the abdominal cavity for analysis. Blood samples were collected through cardiac puncture for analysis of CFU/mL. Then, different organs including the heart, liver, spleen, lung, and kidney were removed and homogenized in 0.1% TX-100 solution. The homogenate was serially diluted for plating on LB agar. After incubation at 37 °C for 14 h, the number of colonies on the plate was counted to calculate the bacteria burden. Surviving mice were euthanized at 48 h after infection. The blood, peritoneal fluid, and organs were collected for the determination of bacterial colonies. […] For the pretreatment group, mice were sacrificed and tissues were harvested to determine the CFU at 1 h post infection. […]

[4] = test system: S. epidermidis 9397; assay: Mouse peritonitis model, CFU in organs, blood and IP fluid, S. epidermidis; format: in vivo; conditions: Figure 6e
Experimental: This infection model was conducted according to the previously reported method with slight modification. Female ICR mice (21–24 g) were used for MRSA-infected peritonitis model. Mice were infected by intraperitoneal administration of 0.2 mL of S. aureus USA300 LAC in saline (7.5 × 10^8 CFU/mL) supplemented with 5% mucin. […] Once the infected mice died, peritoneal lavage was performed by injecting 3.0 mL of saline into the peritoneal cavity and massaging the abdomen. Subsequently, the abdomen was opened and peritoneal fluid was recovered from the abdominal cavity for analysis. Blood samples were collected through cardiac puncture for analysis of CFU/mL. Then, different organs including the heart, liver, spleen, lung, and kidney were removed and homogenized in 0.1% TX-100 solution. The homogenate was serially diluted for plating on LB agar. After incubation at 37 °C for 14 h, the number of colonies on the plate was counted to calculate the bacteria burden. Surviving mice were euthanized at 48 h after infection. The blood, peritoneal fluid, and organs were collected for the determination of bacterial colonies. […] For the pretreatment group, mice were sacrificed and tissues were harvested to determine the CFU at 1 h post infection.
For experiments of S. epidermidis and S. haemolyticus infections, female ICR mice (22–24 g) were rendered neutropenic by treatment with 150 and 100 mg/kg of cyclophosphamide intraperitoneally at 4 days and 1 day prior to infection. Mice were infected by intraperitoneal administration of 0.2 mL of S. epidermidis 9397 (5.1 × 10^9 CFU/mL) or S. haemolyticus 0202 (2.6 × 10^9 CFU/mL) in saline. Other experiment conditions were similar to those in MRSA peritonitis model.

CN[C@H](CC(C)C)C(=O)N[C@H]1C(=O)N[C@@H](CC(N)=O)C(=O)N[C@H]2C(=O)N[C@H]3C(=O)N[C@H](C(=O)N[C@H](C(=O)O)c4cc(O)cc(O)c4-c4cc3ccc4O)[C@H](O)c3ccc(c(Cl)c3)Oc3cc2cc(c3O[C@@H]2O[C@H](CO)[C@@H](O)[C@H](O)[C@H]2O[C@H]2C[C@](C)(N)[C@H](O)[C@H](C)O2)Oc2ccc(cc2Cl)[C@H]1O [Vancomycin]
concentration required to inhibit the formation of S. aureus biofilm [1]: 2 × MIC | reduction in the bacterial burden on the wound compared with the saline group [2]: ~ 1.2 log | mice survived [3]: 4/6 | Log10(CFU/mL IP fluid) ([4]; individual mouse 1 of 6): 6.824 Log10(CFU/mL) | Log10(CFU/mL IP fluid) ([4]; individual mouse 2 of 6): 5.982 Log10(CFU/mL) | Log10(CFU/mL IP fluid) ([4]; individual mouse 3 of 6): 4.068 Log10(CFU/mL) | Log10(CFU/mL IP fluid) ([4]; individual mouse 4 of 6): 3.222 Log10(CFU/mL) | Log10(CFU/mL IP fluid) ([4]; individual mouse 5 of 6): 3.067 Log10(CFU/mL) | Log10(CFU/mL IP fluid) ([4]; individual mouse 6 of 6): 4.206 Log10(CFU/mL) | Log10(CFU/mL Blood) ([4]; individual mouse 1 of 6): 4.311 Log10(CFU/mL) | Log10(CFU/mL Blood) ([4]; individual mouse 2 of 6): 4.38 Log10(CFU/mL) | Log10(CFU/mL Blood) ([4]; individual mouse 3 of 6): 2.602 Log10(CFU/mL) | Log10(CFU/mL Blood) ([4]; individual mouse 4 of 6): 2.824 Log10(CFU/mL) | Log10(CFU/mL Blood) ([4]; individual mouse 5 of 6): 0 Log10(CFU/mL) | Log10(CFU/mL Blood) ([4]; individual mouse 6 of 6): 2.301 Log10(CFU/mL) | Log10(CFU/g Heart) ([4]; individual mouse 1 of 6): 5.45 Log10(CFU/g) | Log10(CFU/g Heart) ([4]; individual mouse 2 of 6): 5.747 Log10(CFU/g) | Log10(CFU/g Heart) ([4]; individual mouse 3 of 6): 5.222 Log10(CFU/g) | Log10(CFU/g Heart) ([4]; individual mouse 4 of 6): 5.315 Log10(CFU/g) | Log10(CFU/g Heart) ([4]; individual mouse 5 of 6): 4.186 Log10(CFU/g) | Log10(CFU/g Heart) ([4]; individual mouse 6 of 6): 4.735 Log10(CFU/g) | Log10(CFU/g Kidney) ([4]; individual mouse 1 of 6): 6.633 Log10(CFU/g) | Log10(CFU/g Kidney) ([4]; individual mouse 2 of 6): 6.452 Log10(CFU/g) | Log10(CFU/g Kidney) ([4]; individual mouse 3 of 6): 4.81 Log10(CFU/g) | Log10(CFU/g Kidney) ([4]; individual mouse 4 of 6): 4.699 Log10(CFU/g) | Log10(CFU/g Kidney) ([4]; individual mouse 5 of 6): 4.119 Log10(CFU/g) | Log10(CFU/g Kidney) ([4]; individual mouse 6 of 6): 4.752 Log10(CFU/g) | Log10(CFU/g Liver) ([4]; individual mouse 1 of 6): 7.125 Log10(CFU/g) | Log10(CFU/g Liver) ([4]; individual mouse 2 of 6): 7.288 Log10(CFU/g) | Log10(CFU/g Liver) ([4]; individual mouse 3 of 6): 4.887 Log10(CFU/g) | Log10(CFU/g Liver) ([4]; individual mouse 4 of 6): 4.845 Log10(CFU/g) | Log10(CFU/g Liver) ([4]; individual mouse 5 of 6): 3.985 Log10(CFU/g) | Log10(CFU/g Liver) ([4]; individual mouse 6 of 6): 5.176 Log10(CFU/g) | Log10(CFU/g Lung) ([4]; individual mouse 1 of 6): 6.477 Log10(CFU/g) | Log10(CFU/g Lung) ([4]; individual mouse 2 of 6): 5.954 Log10(CFU/g) | Log10(CFU/g Lung) ([4]; individual mouse 3 of 6): 6.211 Log10(CFU/g) | Log10(CFU/g Lung) ([4]; individual mouse 4 of 6): 5.171 Log10(CFU/g) | Log10(CFU/g Lung) ([4]; individual mouse 5 of 6): 3.564 Log10(CFU/g) | Log10(CFU/g Lung) ([4]; individual mouse 6 of 6): 4.434 Log10(CFU/g) | Log10(CFU/g Spleen) ([4]; individual mouse 1 of 6): 7.954 Log10(CFU/g) | Log10(CFU/g Spleen) ([4]; individual mouse 2 of 6): 7.349 Log10(CFU/g) | Log10(CFU/g Spleen) ([4]; individual mouse 3 of 6): 7.368 Log10(CFU/g) | Log10(CFU/g Spleen) ([4]; individual mouse 4 of 6): 5.666 Log10(CFU/g) | Log10(CFU/g Spleen) ([4]; individual mouse 5 of 6): 5.977 Log10(CFU/g) | Log10(CFU/g Spleen) ([4]; individual mouse 6 of 6): 6.041 Log10(CFU/g)
